The source of these data is patent publication US7901707B2, “Biodegradable biocompatible implant and method of manufacturing same” (priority 2005, dated 2011).

The test system of assay [1] is SKOV3 cells. The assay can be described thus: Cell proliferation assay (MTT), sustained exposure. The assay is classed as cell-based, human. As for the experimental part: (§1) Briefly, cells were diluted with culture medium to the seeding density (10^5 cells/mL) and suspended in 96-well tissue culture plates (100 μL/well), and preincubated at 37° C. overnight. Cells were then treated continuously with 10 μL of various concentrations of the anticancer agents to obtain a dose-response curve for each agent. For combination assays, cells were also treated continuously with a total of with 10 μL of various concentrations of PTX and CPT. Each drug concentration was as follows: 6.25-200 ng/mL PTX and 1-50 μg/mL CPT.
(§2) After incubation of 24, 48 and 72 h, 10 μL of MTT solution (5 mg/mL of PBS, filtered) was added to each well and the plates were further incubated for 4 h. 100 μL of extraction buffer (20% w/v SDS dissolved at 37° C. in a solution of 50% Dimethylformamide/50% H2O, 2.5% of 80% Acetic acid 2.5% of 1N HCl (ph 4.7)) was added to solubilize the MTT-formazan product. Absorbance at 570 nm was measured with a microplate reader (SPECTRAmax® PLUS384, Molecular Devices, Sunnyvale Calif.—U.S.A.). Dose response curves were plotted as a percentage of the control cell number, which was obtained from the no-drug exposure sample. A semilog scale was used when necessary: IC50 of CPT for SKOV3 and CAOV3.

Assay [2] concerns SKOV-3 cells. The assay can be described thus: In-vitro cytotoxicity of implant, implant containing PTX and free PTX (MTT). The assay is classed as cell-based, human. Here is the method:
In-vitro cytoxicity of the implant, implant containing PTX and free PTX. The SKOV-3 cells were plated in 6-well plates and cultured in RPMI 1640 supplemented with 1% penicillin/streptomycin solution and 10% fetal bovine serum. The cell line was grown at 37° C. in a humidified incubator equilibrated with 5% CO2. Medium was replaced three times a week and cells were typsinised and subcultured every five days. […] Likewise, PoLi implants of varying sizes were added to the wells. The implants were swelled in 70% ethanol for sterilization purposes prior to incubation with cells. Following a 48 hour incubation period the cell viability was measured using the MTT assay. The MTT dye was added to each well following the specific time period and incubated for 2 hours at 37° C. Cells were then solubilized in 10% SDS. Formazan dye concentrations were then detected using a microplate reader (BioRad) at […] wavelength of 570 nm.

Assay [3] deals with ovarian cancer cells. In words: MTT assay, combination of PTX and CPT. The format is cell-based. The conditions noted are these: 48 hour. As for the experimental part:
as §1
as §2, with “sample.” for “sample. A semilog scale was used when necessary: IC50 of CPT for SKOV3 and CAOV3.”
A general note: Formazan colour is commonly taken as a measure of viable cells.

Each structure is given as a SMILES string. In brackets after ≈: the same amount, converted by molar mass. A value given as a limit tells only on which side of the number the result lay.

Broadly, the IC50 is the concentration that inhibits the measured activity by half. On to `CC(=O)O[C@H]1C(=O)[C@@]2(C)[C@H]([C@H](OC(=O)c3ccccc3)[C@]3(O)C[C@H](OC(=O)[C@H](O)[C@@H](NC(=O)c4ccccc4)c4ccccc4)C(C)=C1C3(C)C)[C@]1(OC(C)=O)CO[C@@H]1C[C@@H]2O` [PTX, paclitaxel], for which the “decrease in IC50, 24 versus 72 hour time point” value in assay [1] is 10 fold. Also, in assay [2] (0.050 μg of free PTX, 48 hours), the reduction in cells turned out to be 64%. This compound showed a cell reduction in assay [2] (0.2 μg of free PTX, 48 hours) of 73%. Besides, the IC50 was 0.0347 µg/mL (≈ 0.0406 µM) in assay [2] (Homo sapiens, SK-OV-3, 48 hours of incubation) and more than 0.2 µg/mL in assay [3] (PTX alone).

Turning to `N.N.O=C([O-])C1(C(=O)[O-])CCC1.[Pt+2]` [CPT, carboplatin], the “CPT IC50” value in assay [3] (CPT alone) came to 35 µg/mL.
